Laboratory results reported in patent US5021439A, “Cerebral function ameliorating agents related to Tan-950 A” (priority 1988, dated 1991).
Read-outs that look alike come from different tables or passages of the source.

How the values were obtained:
[1] = system: glutamate receptor (NMDA type, Quisqualate type and Kainate type); experiment: Affinity for the glutamate receptors of the brain, 3 sub-types taken together; assay type: binding, rat; conditions: summary of Table 5
Text: (§1) The receptors of the exitatory amino acid (especially, glutamate) are classified into NMDA type, Quisqualate type and Kainate type. 3H-CPP [3-(2-carboxypiperazin-4-yl)propyl-1-[…]] as the ligand (a radio active substance which has high affinity for the receptor) for the NMDA-type-receptor, ^3 H-AMPA (DL-α-amino-3-hydroxy-5-methylisoxazole-4-propionic acid) as the ligand for the quisqualate-type-receptor, and ^3 H-kainic acid as the ligand for the kainate-type-receptor were used respectively. A sample of the crude synaptic membrane prepared from the forebrain of rat was washed 4 times by Tris hydrochloric acid buffer (pH 7.1) and kept in a freezing condition at -20° C. until its use.
(§2) Samples of the frozen crude synaptic membrane were melted and, after floating on 50 mM Tris hydrochloric acid buffer (pH 7.1), incubated for 30 minutes at 37° C. After the incubation, the synaptic membrane was centrifuged (48,000×g) and washed 3 times with 50 mM Tris hydrochloric acid buffer and used in the test.
(§3) In the binding assay of the NMDA-type-receptor, samples of the synaptic membrane were incubated in the presence or absence of a test compound together with 10 nM ^3 H-CPP in 50 mM Tris hydrochloric acid buffer (pH 7.1, 0° C.) for 15 minutes. The sediment (pellet) containing synapse membrane which was recovered by centrifugation of the incubation solution was rinsed with 50 mM Tris hydrochloric acid buffer (pH 7.1) and dissolved in 0.5 ml of Protosol® (made by New England Nuclear Inc.). In the binding assay of Quisqualate-type-receptor and Kainate-type-receptor, samples of the synapse was incubated in the presence or absence of a test compound in 5 nM ^3 H-AMPA (Quisqualate-type-receptor) or 2 nM ^3 H-Kainic acid (Kainate-type-receptor) together with 50 mM Tris hydrochloric acid buffer (pH 7.1, 0° C.) for 90 minutes. The solution was filtered with Whatman GF/B filter (Whatman®, made by Whatman Inc.) under reduced pressure and the filter was washed 3 times with 50 mM Tris hydrochloric acid buffer. The radioactivity on the filter was measured by a conventional method. The specific binding amount was determined by subtracting the non-specific binding from the total binding, taking the binding in the presence of an excessive non-radioactive L-sodium glutamate (1 mM) as the amount of the non-specfic binding, i.e., the binding to anything other than the receptor. The 50% inhibiting concentration (IC50) of the compound to be tested was determined as the concentration which inhibits 50% of the specific receptor binding of ^3 H-CPP, ^3 H-AMPA or ^3 H-kainic acid.

NMDA-type receptor = experiment: Binding assay of NMDA-type receptor (3H-CPP) on rat forebrain crude synaptic membrane; conditions: for IC50: 10 nM 3H-CPP, pH 7.1, 0° C., 15 min, read-out: Affinity to NMDA-type receptor (3H-CPP), IC50; for Affinity to the NMDA-type-receptor (in words): summary of Table 5
Text: as §1, §2, §3

[2] = system: neurons of rat hippocampus; experiment: Excitatory action on neurons of rat hippocampus in vitro (CA1 spike recording in slices); assay type: cell-based; conditions: rat hippocampal slices, CA1 pyramidal cell layer, Krebs-Ringer solution 33° C., read-out: Minimum effective concentration to induce firing of hippocampus nervous cell
Protocol: Male Wister rats (body weight: 300 -350 g) were used in the test. After cutting the head of rats, the brain was quickly taken out and […] thickness of the sliced samples of a hippocampus was prepared by a slice cutter. These samples were incubated in a nutrient solution (Krebs-Ringer solution, 33° C.) saturated with a mixed gas of 95% of oxygen gas and 5% of carbon dioxide gas for one or more hours. The test was carried out in the perfusion cisterna with perfusing at the flow speed of 1.5 ml/min. The action potential (spike) in CA1 pyramidal cell layer of the hippocampus was recorded extracellularlly by using a glass electrode filled with 2M NaCl solution. The test compounds were added to the perfusate and the change in number of the spikes with passage of time was counted by a pulse counter and recorded on the recorder. The Krebs-Ringer's solution contains 124 mM of NaCl, 5 mM of KCl, 1.24 mM of KH2 PO4, 1.3 mM of MgSO4, 2.4 mM of CaCL2, 26 mM of […] and 10 mM of glucose.

[3] = system: Memory Dysfunction Induced by Cycloheximide Administration; experiment: Improvement of cycloheximide-induced memory dysfunction, passive avoidance in mice; assay type: in vivo, C57BL/b mice; conditions: for Tested Retention Time (percentage to control group), latency: i.p., twice, 30 min before acquisition and before retention test, memory impairment group = 100; for Effect on memory dysfunction / latency (in words): mouse, in vivo
Protocol: Experimental memory disturbance was induced by administering a protein synthesis inhibiting agent, cycloheximide to C57BL/b male mice of 5 week-age. The memory test was carried out using a passive avoidance learning equipment consisting of two chambers of dark and bright. At first, a memory acquisition process of mice was carried out. In this process, a mouse was released in the bright chamber and the guillotine type door connecting between bright and dark chambers was open. Immediately after the mouse that likes a dark place having entered into the dark chamber, said guillotine type door was closed and an electric shock of 0.4 mA was given to the mouse for 3 seconds through the floor grid. Mice learned through this process to receive electric shock from the floor once they move to the dark chamber. However, the memory formation in mice that received cycloheximide (60 mg/Kg) subcutaneously 30 minutes before this memory acquisition process becomes insufficient. The memory retention test was carried out in accordance with similar procedures with mice which received cycloheximide (memory dysfunction group) and normal mice on the next day that the memory acquisition process was carried out. A time from the release of mice in the bright chamber to the entry into the dark chamber through the guillotine type door opened was measured (latency). The latency was shorter in the memory dysfunction group and the effectiveness of the compounds was determined in terms of a degree of the prolongation of latency. The test compounds were intraperitoneally administered twice in total to the mice each 30 minutes before the memory acquisition process and the memory keeping test.
The effect of the compounds in improving a memory dysfunction was expressed as a percentage in which the latency in the memory impairment group at the memory retention test was regarded as 100, and the results are shown in Table 7.

[4] = molecular target: Quisqualate-type receptor; experiment: Binding assay of Quisqualate-type receptor (3H-AMPA) on rat forebrain crude synaptic membrane; conditions: for IC50: 5 nM 3H-AMPA, pH 7.1, 0° C., 90 min, read-out: Affinity to Quisqulate-type receptor (3H-AMPA), IC50; for Affinity to the Quisqualate-type-receptor (in words): summary of Table 5
Text: as §1, §2
as §3, with “receptor.” for “receptor. The 50% inhibiting concentration (IC50) of the compound to be tested was determined as the concentration which inhibits 50% of the specific receptor binding of ^3 H-CPP, ^3 H-AMPA or ^3 H-kainic acid.”

Kainate-type receptor = experiment: Binding assay of Kainate-type receptor (3H-kainic acid) on rat forebrain crude synaptic membrane; conditions: for Affinity to Kainate-type receptor (3H-KA), IC50: 2 nM 3H-Kainic acid, pH 7.1, 0° C., 90 min; for Affinity to the Kainate-type-receptor (in words): summary of Table 5
Text: as §1, §2
as §3, with “receptor.” for “receptor. The 50% inhibiting concentration (IC50) of the compound to be tested was determined as the concentration which inhibits 50% of the specific receptor binding of ^3 H-CPP, ^3 H-AMPA or ^3 H-kainic acid.”

SMILES	Affinity to the 3 sub-type receptors (in words) [1]	IC50 (NMDA-type receptor)	Affinity to the NMDA-type-receptor (in words) (NMDA-type receptor)	minimal effective concentration ([2]; Rattus norvegicus, Neuron)	minimal effective concentration ([2]; listed as 72 (hydrochloride))	Tested Retention Time (percentage to control group), latency ([3]; 1 mg/kg)	Tested Retention Time (percentage to control group), latency ([3]; 10 mg/kg, * in table: p < 0.05)	Effect on memory dysfunction / latency (in words) [3]	IC50 [4]	Affinity to Kainate-type receptor (3H-KA), IC50 (Kainate-type receptor)	Affinity to the Quisqualate-type-receptor (in words) [4]	Affinity to the Kainate-type-receptor (in words) (Kainate-type receptor)
N[C@H](Cc1c[nH]oc1=O)C(=O)O [Compound 72]	high affinities to the 3 sub-type receptors	6.2 µM	high affinity	≥ 300 µM	300 µM	217 percentage to control group	278 percentage to control group	prolong the latency significantly	14 µM	37 µM		
Cc1[nH]oc(=O)c1C[C@H](N)C(=O)O [Compound 75]	high affinities to the 3 sub-type receptors	11 µM		≥ 1 µM		205 percentage to control group	184 percentage to control group	prolong the latency significantly	0.31 µM	7.3 µM	strong affinity	strong affinity
Cc1[nH]oc(=O)c1C[C@@H](N)C(=O)O [Compound 78]	high affinities to the 3 sub-type receptors	68 µM		≥ 30 µM		179 percentage to control group	222 percentage to control group	prolong the latency significantly	3.9 µM	98 µM	strong affinity	
CCc1[nH]oc(=O)c1C[C@H](N)C(=O)O [Compound 81]	high affinities to the 3 sub-type receptors	35 µM		≥ 1 µM					0.67 µM	17 µM	strong affinity	
CC(C)c1[nH]oc(=O)c1C[C@H](N)C(=O)O [Compound 84]	high affinities to the 3 sub-type receptors	> 100 µM		≥ 3 µM					3.8 µM	67 µM		
N[C@@H](Cc1c(-c2ccccc2)[nH]oc1=O)C(=O)O [Compound 87]	high affinities to the 3 sub-type receptors	11 µM		30 µM					15 µM	26 µM		
N[C@@H](Cc1c[nH]oc1=O)C(=O)N1CCCCC1C(=O)O (stereo partly shown) [Compound 132]	high affinities to the 3 sub-type receptors	6.3 µM	high affinity	≥ 300 µM					1 µM	4.5 µM	strong affinity	strong affinity
N[C@@H](C(=O)O)c1c[nH]oc1=O [Compound 149]	differences in their affinities	5.8 µM	high affinity	≥ 30 µM					> 100 µM	> 100 µM		
Cc1[nH]oc(=O)c1[C@@H](N)C(=O)O [Compound 155]	differences in their affinities	8.3 µM	high affinity	≥ 10 µM					> 100 µM	> 100 µM		
N[C@@H](Cc1c(C2CCCC2)[nH]oc1=O)C(=O)O [Compound 158]	differences in their affinities	> 100 µM		≥ 0.3 µM					0.31 µM	57 µM	strong affinity	
N[C@@H](Cc1c(C2CC2)[nH]oc1=O)C(=O)O [Compound 173]	high affinities to the 3 sub-type receptors	13 µM		≥ 0.3 µM					0.12 µM	3.8 µM	strong affinity	strong affinity
CCc1[nH]oc(=O)c1[C@@H](N)C(=O)O [Compound 180]	differences in their affinities	7.9 µM	high affinity	≥ 30 µM					> 100 µM	> 100 µM		
N[C@@H](CCC(=O)O)C(=O)O [Glutamic acid, reference compound]							101 percentage to control group					
